Source: US11793208B2, “Antimicrobial treatment of animal carcasses and food products” (EVONIK OPERATIONS GMBH, priority 2017, dated 2023)
One block for each compound: values may come before it.

Tests used:
[1] = pH of tap water containing acids and alkaline modifiers, before and after contact with chicken breast; type: physicochemical; details: for pH after 1 hour: 1 hour at 4° C. with chicken breast; for pH initial: tap water 4° C., before addition of poultry
Description: Organic acids were added to plastic containers containing 5.0 L of tap water at 4° C. The alkaline modifiers, NaOH, Na2CO3, Na2CO3.1.5H2O2, Na3PO4, were added to the solution in the plastic container in an amount sufficient to bring pH to about 7-9 depending upon the pKa of the organic acid. Then, 5 pieces of chicken breast weighing about 200 gram each were added to each container. The solution was then incubated for one hour at 4° C., with periodic stirring. The pH was measured immediately before the addition of the poultry and then after the 1 hour incubation at 4° C.

[2] = tested on: Salmonella enterica ATCC 14028; experiment: Salmonella suspension testing method; type: cell-based; details: for Average Log10 reduction: 60 min treatment, 5% organic load; for kill of Salmonella: organic acid with addition of percarbonate, relatively high pH
Description: The effect of organic acids and alkaline modifiers on microbial viability was assayed using a Salmonella suspension testing method as described below. […] A 1:5 dilution of organism was prepared in Butterfield's buffer. This dilution was added in equal parts to sterile fetal bovine serum in order to produce a working inoculum containing a 50% organic load. […] Then, a 1 mL aliquot of working inoculum was added to the test solution and vortexed briefly to mix. A 1 mL aliquot was removed from the mixture at 1, 30, and 60 minutes following inoculation, and immediately added to a 9 mL volume of Letheen neutralizing broth. This broth was then vortex mixed, diluted serially into Butterfield's buffer, and the dilutions plated on 3[…] Aerobic Count Plates. The plates were incubated for 24-48 hours at 35° C., and then counted manually. Log 10 calculations were performed to obtain the Log 10 CFU/mL of the solutions at each time point.

[3] = Concentration of PAA and H2O2 in the presence of alkaline modifiers; type: physicochemical; details: for effect of alkaline modifier on concentration of both PAA and hydrogen peroxide: PAA solution with the alkaline modifier, 1 hour at 4° C.; for PAA, ppm Initial / H2O2, ppm Initial: immediately after preparation; for H2O2, ppm in 1 hour / PAA, ppm in 1 hour: after 1 hour at 4° C.
[4] = tested on: Aerobic Plate Count (APC); experiment: Microbial load of rinses from treated poultry offal: Aerobic Plate Count; type: cell-based; details: 8-10 seconds
Description: (§1) For offal treatments, mixtures of organic acids and peroxyacids were prepared by weighing the components and dissolving them in water to reach the desired concentration. Peracetic acid (PAA) solutions were prepared by diluting VigorOx® (PeroxyChem LLC) with tap water to obtain the target concentration.
(§2) The pH of the aseptic compositions was adjusted using a 25% aqueous solution of NaOH, solid sodium carbonate, or sodium bicarbonate. The amount of active oxygen was confirmed by titration on an autotitrator and by using Chemetrics test kits K-7913F and K-5543.
(§3) Fresh poultry livers and gizzards, and lamb livers and kidneys were purchased untreated and fresh (not frozen) from local suppliers. All offal was kept refrigerated before testing.
(§4) Poultry offal was collected into a single large plastic bag. A gloved hand was used to remove either 6 whole, bi-lobed livers or 12 gizzards and place them in 350 mL of either water, an 840 ppm PAA solution, or an 840 ppm PAA solution that had been adjusted to a pH of 10.2 with sodium hydroxide and used within 5 minutes of pH adjustment. The samples were incubated in the solutions for 8-10 seconds. After treatment, a freshly gloved hand was used to remove 2 livers (or 4 gizzards) into a small plastic strainer. The treated samples were allowed to drain for 30 to 60 seconds to remove excess moisture. Each set of 2 livers (or 4 gizzards) was then placed into 100 mL peptone buffer and rinsed in the peptone for 30 seconds. A few milliliters of rinsate were removed by transfer pipette and kept on ice for dilution and plating. The plates were incubated for 24 to 48 hours at 35° C. and counted manually to determine the Aerobic Plate Count (APC) and the Enterobacteriaceae count (EBC). The color of the treated samples was noted by visual inspection.

Enterobacteriaceae = experiment: Microbial load of rinses from treated poultry offal: Enterobacteriaceae count; type: cell-based; details: 8-10 seconds
Description: as §1, §2, §3, §4

[5] = tested on: Aerobic Plate Count (APC); experiment: Microbial reduction after PAA treatment of chicken livers: Aerobic Plate Count; type: cell-based; details: PAA 1000 ppm
Description: (§5) Six chicken livers were added to 500 mL of peracetic acid solution, and incubated room temperature for 5, 15, or 30 seconds. Then the livers were removed and quickly added individually to 100 mL Buffered Peptone Water in a sterile cup, 1 liver per cup. Cups were manually shaken for 30 seconds and the liquid was sampled for plating. Sample rinses were serially diluted using Butterfield's buffer and plated on Aerobic Plate Count (APC) and Escherichia coli Coliform (ECC) plates. The plates were incubated for 24-48 hours at a temperature of 35° C., and then counted manually. Log10 calculations were performed to obtain the Log10 CFU/mL of the solutions at each time point.

[6] = tested on: Escherichia coli Coliform (ECC); experiment: Microbial reduction after PAA treatment of chicken livers: Escherichia coli Coliform plates; type: cell-based; details: PAA 1000 ppm
Description: as §5

[7] = tested on: Aerobic Plate Count (APC); experiment: Microbial reduction after PAA treatment of lamb livers: Aerobic Plate Count; type: cell-based; details: PAA 100 ppm
[8] = Citric 2,500 ppm, alkaline modifier Na2CO3•1.5H2O2
[9] = Citric 5,000 ppm, alkaline modifier Na2CO3•1.5H2O2
[10] = Glycolic 250 ppm, alkaline modifier Na2CO3
[11] = Glycolic 250 ppm, alkaline modifier NaOH
[12] = Glycolic 500 ppm, no alkaline modifier
[13] = additive Na5P3O10 125 ppm, initial PAA 10.4 ppm
[14] = additive Na5P3O10 125 ppm, initial PAA 30.1 ppm
[15] = Gizzards, 840 ppm PAA adjusted to pH 10.2 with sodium hydroxide
[16] = Livers, 840 ppm PAA adjusted to pH 10.2 with sodium hydroxide
[17] = alkaline modifier Na2CO3, pH 8.5, treatment time 5 seconds
[18] = alkaline modifier NaHCO3, pH 7.5, treatment time 15 seconds
[19] = alkaline modifier NaHCO3, pH 7.5, treatment time 30 seconds
[20] = alkaline modifier NaOH, pH 7.5, treatment time 5 seconds
[21] = no alkaline modifier, pH 3.1, treatment time 5 seconds
[22] = no alkaline modifier, pH 3.1, treatment time 15 seconds

- effect of alkaline modifier on concentration of both PAA and hydrogen peroxide [3]: relatively rapid decrease
- PAA, ppm Initial ([3]; additive Na5P3O10 125 ppm, higher PAA level): 30.1 ppm
- H2O2, ppm in 1 hour [3, 13]: 1.4 ppm
- PAA, ppm in 1 hour [3, 13]: 4.0 ppm
- H2O2, ppm Initial [3, 13]: 6.5 ppm
- H2O2, ppm in 1 hour [3, 14]: 4.8 ppm
- PAA, ppm in 1 hour [3, 14]: 8.6 ppm
- H2O2, ppm Initial [3, 14]: 20.1 ppm
- PAA, ppm Initial ([3]; additive Na5P3O10 125 ppm, lower PAA level): 10.4 ppm
Structure (SMILES): O=P(O)(O)OP(=O)(O)OP(=O)(O)O [Na5P3O10, sodium tripolyphosphate, reference compound]

- effect of alkaline modifier on concentration of both PAA and hydrogen peroxide [3]: remained relatively stable
- H2O2, ppm in 1 hour ([3]; additive NaHCO3 125 ppm): 6.3 ppm
- PAA, ppm in 1 hour ([3]; additive NaHCO3 125 ppm): 8.5 ppm
- H2O2, ppm Initial ([3]; additive NaHCO3 125 ppm): 6.5 ppm
- PAA, ppm Initial ([3]; additive NaHCO3 125 ppm): 10.4 ppm
- H2O2, ppm in 1 hour ([3]; additive NaHCO3 250 ppm): 18.9 ppm
- PAA, ppm in 1 hour ([3]; additive NaHCO3 250 ppm): 29.6 ppm
- H2O2, ppm Initial ([3]; additive NaHCO3 250 ppm): 19.9 ppm
- PAA, ppm Initial ([3]; additive NaHCO3 250 ppm): 30.3 ppm
- H2O2, ppm in 1 hour ([3]; additive NaHCO3 275 ppm): 11 ppm
- PAA, ppm in 1 hour ([3]; additive NaHCO3 275 ppm): 23 ppm
- H2O2, ppm Initial ([3]; additive NaHCO3 275 ppm): 11 ppm
- PAA, ppm Initial ([3]; additive NaHCO3 275 ppm): 25 ppm
Structure (SMILES): O=C([O-])O.[Na+] [NaHCO3, sodium bicarbonate]

- effect of alkaline modifier on concentration of both PAA and hydrogen peroxide [3]: relatively rapid decrease
- H2O2, ppm in 1 hour ([3]; additive NaOH 100 ppm): 4 ppm
- PAA, ppm in 1 hour ([3]; additive NaOH 100 ppm): 8 ppm
- H2O2, ppm Initial ([3]; additive NaOH 100 ppm): 11 ppm
- PAA, ppm Initial ([3]; additive NaOH 100 ppm): 25 ppm
Structure (SMILES): [Na+].[OH-] [NaOH, sodium hydroxide, reference compound]

Continued, compound first:

Structure (SMILES): O=C(O)CC(O)(CC(=O)O)C(=O)O [Citric, citric acid]
- pH after 1 hour [1, 8]: 7.5
- pH initial [1, 8]: 7.5
- pH after 1 hour [1, 9]: 8.5
- pH initial [1, 9]: 8.5
- Average Log10 reduction ([2]; Citric 0.5%, alkaline modifier Na2CO3•1.5H2O2, pH 7.5): 7.09
- Average Log10 reduction ([2]; Citric 0.5%, no alkaline modifier, pH 2.4): 3.83
- kill of Salmonella [2]: virtually complete kill

Structure (SMILES): O=C(O)CO [Glycolic, glycolic acid]
- pH after 1 hour [1, 10]: 6.8
- pH initial [1, 10]: 6.7
- pH after 1 hour [1, 11]: 7.5
- pH initial [1, 11]: 9.0
- pH after 1 hour [1, 12]: 4.5
- pH initial [1, 12]: 3.6

Structure (SMILES): CC(=O)OO [PAA, Peracetic acid]
- H2O2, ppm in 1 hour ([3]; no additive (0 ppm)): 11 ppm
- PAA, ppm in 1 hour ([3]; no additive (0 ppm)): 24 ppm
- H2O2, ppm Initial ([3]; no additive (0 ppm)): 11 ppm
- PAA, ppm Initial ([3]; no additive (0 ppm)): 25 ppm
- Log APC [4, 15]: 0.85
- Log APC ([4]; Gizzards, 840 ppm PAA, pH 3.4): 0.70
- Log APC [4, 16]: 0.30
- Log APC ([4]; Livers, 840 ppm PAA, pH 3.4): 0.00
- Log EBC (Enterobacteriaceae; [15]): 0.00
- Log EBC (Enterobacteriaceae; Gizzards, 840 ppm PAA, pH 3.4): 0.00
- Log EBC (Enterobacteriaceae; [16]): 0.00
- Log EBC (Enterobacteriaceae; Livers, 840 ppm PAA, pH 3.4): 0.00
- APC log10 reduction [5, 17]: 1.1
- APC log10 reduction [5, 18]: 1.1
- APC log10 reduction [5, 19]: 1.7
- APC log10 reduction [5, 20]: 1.1
- APC log10 reduction [5, 21]: 0.9
- APC log10 reduction [5, 22]: 1.2
- ECC log10 reduction [6, 17]: 1.1
- ECC log10 reduction [6, 18]: 3.1
- ECC log10 reduction [6, 19]: 3.1
- ECC log10 reduction [6, 20]: 0.8
- ECC log10 reduction [6, 21]: 0.5
- ECC log10 reduction [6, 22]: 1.1
- APC log10 reduction ([7]; additive Citric acid, 2%, pH 7.5 (sodium carbonate), treatment time 10 minutes): 1.8
- APC log10 reduction ([7]; additive Lactic acid, 2%, pH 7.5 (sodium carbonate), treatment time 10 minutes): 1.8
- APC log10 reduction ([7]; no additive, pH 4.1, treatment time 10 minutes): 2.2
- APC log10 reduction ([7]; no additive, pH 7.5 (adjusted with sodium carbonate), treatment time 10 minutes): 3.0

Structure (SMILES): CCC(=O)O [Propionic, propionic acid]
- Average Log10 reduction ([2]; Propionic 0.5%, alkaline modifier Na2CO3•1.5H2O2, pH 7.5): 7.07
- Average Log10 reduction ([2]; Propionic 0.5%, no alkaline modifier, pH 3.1): 2.15
- kill of Salmonella [2]: virtually complete kill
